According to article PMC3756492 (Journal of medicinal chemistry, 2010):

How the values were obtained:
DAT [1] = assay: HRRT PET imaging in an awake rhesus monkey; type: in vivo; details: HRRT PET images
DAT [2] = target: DAT (Macaca fascicularis, UniProt Q9GJT6); assay: MicroPET imaging in anesthetized cynomolgus monkeys; type: in vivo; details: anesthetized cynomolgus monkey
DAT (Macaca fascicularis, UniProt Q9GJT6), sequence (Q9GJT6 whole entry): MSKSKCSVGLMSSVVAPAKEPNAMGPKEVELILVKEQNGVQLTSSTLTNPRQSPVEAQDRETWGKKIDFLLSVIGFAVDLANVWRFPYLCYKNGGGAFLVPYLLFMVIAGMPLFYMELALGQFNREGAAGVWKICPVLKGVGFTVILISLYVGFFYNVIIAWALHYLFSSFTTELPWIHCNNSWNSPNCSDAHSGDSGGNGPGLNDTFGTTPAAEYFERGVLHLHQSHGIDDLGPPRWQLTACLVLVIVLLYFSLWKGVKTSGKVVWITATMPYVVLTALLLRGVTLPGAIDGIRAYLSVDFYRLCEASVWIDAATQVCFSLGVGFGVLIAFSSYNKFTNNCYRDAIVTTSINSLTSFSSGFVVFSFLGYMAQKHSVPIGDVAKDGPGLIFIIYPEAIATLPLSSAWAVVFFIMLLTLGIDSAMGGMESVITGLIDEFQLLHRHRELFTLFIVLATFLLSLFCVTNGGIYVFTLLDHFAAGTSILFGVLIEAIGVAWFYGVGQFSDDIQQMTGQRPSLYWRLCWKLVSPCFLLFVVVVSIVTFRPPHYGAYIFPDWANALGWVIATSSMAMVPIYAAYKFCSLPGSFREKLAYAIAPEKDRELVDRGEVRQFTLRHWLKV

SMILES: COC(=O)C1C(c2ccc(F)cc2)CC2CCC1N2C/C=C/C[18F] (stereo not drawn) [[^18F]9, A-((E)-4-[^18F]fluorobut-2-en-1-yl)-2β-carbomethoxy-3β-(4′-fluorophenyl)nortropane]
- Defluorination (visualization of the skull) (DAT [1]): some degree of defluorination
- Displacement of radiotracer in chase study (DAT [2]; 19 (RTI-113•HCl) 0.3 mg/kg at 90 min post-injection): complete displacement
- Time to peak uptake in the putamen (DAT [2]; microPET baseline): ≤ 20 min
- Time to peak uptake in the substantia nigra (DAT [2]; microPET baseline): ≤ 10 min
- Defluorination (radioactivity in the skull) (DAT [2]; microPET images): low degree of defluorination
